In the CheMixHub ionic liquid set:
± gives the uncertainty stated by the source.

Test: xn = mol fraction of the nth substance listed

CCCCCC(=O)[O-].C[NH2+]Cc1ccccc1 + CN(C)C=O
viscosity [mPa·s], 101 kPa
Conditions	293.15 K	298.15 K	303.15 K	308.15 K	313.15 K	318.15 K	323.15 K	328.15 K
x1 = 0.004888	0.957 ± 0.035	0.916 ± 0.035	0.879 ± 0.034	0.846 ± 0.034	0.817 ± 0.033	0.791 ± 0.033	0.767 ± 0.032	0.746 ± 0.032
x1 = 0.008422	0.969 ± 0.036	0.926 ± 0.035	0.887 ± 0.034	0.854 ± 0.034	0.824 ± 0.033	0.797 ± 0.033	0.772 ± 0.032	0.75 ± 0.032
x1 = 0.0141	0.992 ± 0.036	0.946 ± 0.035	0.905 ± 0.035	0.869 ± 0.034	0.837 ± 0.033	0.809 ± 0.033	0.784 ± 0.033	0.76 ± 0.032
x1 = 0.01792	1.009 ± 0.036	0.961 ± 0.035	0.918 ± 0.035	0.881 ± 0.034	0.847 ± 0.034	0.818 ± 0.033	0.791 ± 0.033	0.767 ± 0.032
x1 = 0.02131	1.026 ± 0.037	0.975 ± 0.036	0.93 ± 0.035	0.891 ± 0.034	0.857 ± 0.034	0.826 ± 0.033	0.798 ± 0.033	0.773 ± 0.032
x1 = 0.02717	1.052 ± 0.037	0.998 ± 0.036	0.95 ± 0.035	0.909 ± 0.035	0.873 ± 0.034	0.84 ± 0.033	0.812 ± 0.033	0.786 ± 0.033
x1 = 0.03049	1.072 ± 0.037	1.016 ± 0.036	0.966 ± 0.036	0.923 ± 0.035	0.884 ± 0.034	0.85 ± 0.034	0.82 ± 0.033	0.793 ± 0.033
x1 = 0.03458	1.099 ± 0.038	1.038 ± 0.037	0.985 ± 0.036	0.94 ± 0.035	0.899 ± 0.034	0.863 ± 0.034	0.831 ± 0.033	0.803 ± 0.033

CCCCCCCCn1cc[n+](C)c1.N#C[S-] + CN(C)C=O
viscosity [mPa·s], 101 kPa
Conditions	293.15 K	303.15 K	313.15 K	323.15 K	333.15 K	343.15 K	353.15 K	363.15 K
x1 = 0.004576	0.987 ± 0.025	0.872 ± 0.022	0.784 ± 0.022	0.707 ± 0.02	0.65 ± 0.018	0.595 ± 0.013	0.544 ± 0.015	0.504 ± 0.013
x1 = 0.007767	1.007 ± 0.023	0.891 ± 0.02	0.799 ± 0.019	0.722 ± 0.017	0.658 ± 0.015	0.604 ± 0.014	0.558 ± 0.013	0.515 ± 0.012
x1 = 0.01461	1.065 ± 0.024	0.948 ± 0.021	0.868 ± 0.02	0.779 ± 0.018	0.705 ± 0.016	0.642 ± 0.015	0.591 ± 0.014	0.543 ± 0.013
x1 = 0.02142	1.136 ± 0.026	0.994 ± 0.022	0.912 ± 0.02	0.814 ± 0.018	0.728 ± 0.016	0.673 ± 0.015	0.617 ± 0.014	0.563 ± 0.013
x1 = 0.02908	1.219 ± 0.027	1.057 ± 0.024	0.956 ± 0.021	0.848 ± 0.019	0.764 ± 0.017	0.713 ± 0.016	0.648 ± 0.015	0.598 ± 0.014
x1 = 0.03577	1.297 ± 0.029	1.134 ± 0.026	1.013 ± 0.023	0.897 ± 0.021	0.808 ± 0.019	0.738 ± 0.017	0.672 ± 0.015	0.618 ± 0.014

CCCCCCCCn1cc[n+](C)c1.[Cl-] + CO
101 kPa
Conditions	viscosity [mPa·s]
298.15 K, x1 = 0.0197	0.729 ± 0.025
298.15 K, x2 = 0.3525	530 ± 110
298.15 K, x2 = 0.4395	237 ± 33
298.15 K, x2 = 0.5589	64.1 ± 2.1
298.15 K, x2 = 0.8713	2.39 ± 0.073
298.15 K, x2 = 0.8813	2.205 ± 0.067
313.15 K, x2 = 0.5589	34.97 ± 0.94
313.15 K, x2 = 0.8231	3.58 ± 0.11
328.15 K, x2 = 0.4395	55.2 ± 1.2
328.15 K, x2 = 0.8231	2.496 ± 0.077

CCCC[n+]1ccc(C)cc1.F[B-](F)(F)F + CO
101 kPa
Conditions	viscosity [mPa·s]
298.15 K, x2 = 0	196 ± 73
298.15 K, x2 = 0.4287	19.3 ± 1.4
298.15 K, x2 = 0.5246	11.58 ± 0.88
298.15 K, x2 = 0.9671	0.729 ± 0.076
313.15 K, x2 = 0.4287	11.94 ± 0.91
313.15 K, x2 = 0.718	2.98 ± 0.27
313.15 K, x2 = 0.8803	1.13 ± 0.11
323.15 K, x1 = 0.01507	0.447 ± 0.051
323.15 K, x2 = 0.8313	1.31 ± 0.13
323.15 K, x2 = 0.8803	0.972 ± 0.097

CC[n+]1ccn(C)c1.N#C[S-] + CO
100 kPa
Conditions	electrical conductivity [S/m]	viscosity [mPa·s]
298.15 K, x1 = 0.5972	2.07 ± 0.62	12.8
303.15 K, x1 = 0.3859	2.58 ± 0.77	7
303.15 K, x1 = 1	–	20
308.15 K, x1 = 0.0988	2.57 ± 0.77	1.9
308.15 K, x1 = 0.5006	2.65 ± 0.79	7.9
308.15 K, x1 = 1	2.27 ± 0.68	18
323.15 K, x1 = 0.1966	–	2.2
323.15 K, x1 = 0.3005	3.7 ± 1.1	3.2
323.15 K, x1 = 0.804	3.13 ± 0.94	9.1
323.15 K, x1 = 0.8997	3.08 ± 0.92	10.4
323.15 K, x1 = 1	3.05 ± 0.91	12

C[N+](C)(C)CCC[N+]1(C)CCCCC1.N#C[N-]C#N.N#C[N-]C#N + CO
100 kPa
Conditions	viscosity [mPa·s]
293.15 K, x1 = 0.5002	271 ± 31
293.15 K, x1 = 0.6001	585 ± 74
303.15 K, x1 = 0.2001	11.3 ± 1.1
303.15 K, x1 = 0.3002	28.5 ± 2.9
303.15 K, x1 = 0.5002	160 ± 17
323.15 K, x1 = 0.0999	2.73 ± 0.28
323.15 K, x1 = 0.3002	15.7 ± 1.6
333.15 K, x1 = 0.3999	24.9 ± 2.5
